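Following 48 hours of exposure in 96-well plates, responses at five concentrations were used to interpolate endpoints linearly. GI50 is the concentration that inhibits growth by half. The concentration for full growth arrest is given as TGI.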
What was measured:
Assay in all cases: NCI-60 cell line screen, 48 h; in the data active = GI50 below about 0.43 µM; inactive = the rest
[1] = tested on: HCT-15 colon
[2] = tested on: SK-MEL-28 melanoma
[3] = tested on: SNB-19 CNS
[4] = tested on: SF-539 CNS
[5] = tested on: HOP-92 NSCLC
[6] = tested on: MDA-MB-231 breast
[7] = tested on: SR leukemia
[8] = tested on: HS 578T breast
[9] = tested on: NCI-H460 lung
[10] = tested on: SNB-75 CNS
[11] = tested on: LOX IMVI melanoma
[12] = tested on: T-47D breast
[13] = tested on: M14 melanoma
[14] = tested on: OVCAR-4 ovarian
[15] = tested on: BT-549 breast
[16] = tested on: CCRF-CEM leukemia
[17] = tested on: U251 CNS
[18] = tested on: TK-10 renal
[19] = tested on: OVCAR-8 ovarian
[20] = tested on: SK-MEL-5 melanoma
[21] = tested on: SN12C renal
[22] = tested on: NCI-H226 lung
[23] = tested on: HCC-2998 colon
[24] = tested on: SF-268 CNS
[25] = tested on: CAKI-1 renal
[26] = tested on: K-562 leukemia
[27] = tested on: NCI/ADR-RES ovarian
[28] = tested on: MCF7 breast
[29] = tested on: SK-MEL-2 melanoma
[30] = tested on: OVCAR-5 ovarian
[31] = tested on: HT29 colon
[32] = tested on: NCI-H23 lung
[33] = tested on: A549 NSCLC
[34] = tested on: PC-3 prostate
[35] = tested on: RPMI-8226 leukemia
[36] = tested on: HCT-116 colon
[37] = tested on: COLO 205 colon
[38] = tested on: HL-60(TB) leukemia
[39] = tested on: SK-OV-3 ovarian
[40] = tested on: SW-620 colon
[41] = tested on: IGROV1 ovarian
[42] = tested on: SF-295 CNS
[43] = tested on: UO-31 renal
[44] = tested on: UACC-62 melanoma
[45] = tested on: DU-145 prostate
[46] = tested on: UACC-257 melanoma
[47] = tested on: 786-0 renal
[48] = tested on: NCI-H522 lung
[49] = tested on: OVCAR-3 ovarian
[50] = tested on: A498 renal
[51] = tested on: HOP-62 NSCLC
[52] = tested on: RXF 393 renal
[53] = tested on: MOLT-4 leukemia
[54] = tested on: ACHN renal
[55] = tested on: KM12 colon

COc1cccc(NC(=O)c2sc3nc4c(cc3c2N)C(O)CCC4)c1 (stereo not given)
23000 nM: TGI [5]
> 49900 nM: TGI [8]
4000 nM: TGI [50]
> 71300 nM: TGI [39]
> 93200 nM: TGI [3]
> 55000 nM: TGI [24]
active: GI50 [1] 85.6 nM | GI50 [4] 140 nM | GI50 [5] 169 nM | GI50 [7] 43.2 nM | GI50 [8] 325 nM | GI50 [9] 324 nM | GI50 [10] 170 nM | GI50 [13] 134 nM | GI50 [15] 274 nM | GI50 [16] 220 nM | GI50 [17] 244 nM | GI50 [19] 377 nM | GI50 [20] 311 nM | GI50 [23] 347 nM | GI50 [26] 40.6 nM | GI50 [27] 206 nM | GI50 [28] 52.3 nM | GI50 [29] 249 nM | GI50 [31] 133 nM | GI50 [33] 287 nM | GI50 [34] 230 nM | GI50 [35] 333 nM | GI50 [36] 117 nM | GI50 [37] 226 nM | GI50 [38] 53.4 nM | GI50 [39] 317 nM | GI50 [40] 107 nM | GI50 [41] 383 nM | GI50 [42] 157 nM | GI50 [44] 150 nM | GI50 [45] 292 nM | GI50 [48] 105 nM | GI50 [49] 106 nM | GI50 [50] 112 nM | GI50 [51] 260 nM | GI50 [52] 278 nM | GI50 [53] 294 nM | GI50 [55] 111 nM
8290 nM: TGI [20]
> 51600 nM: TGI [17]
37700 nM: TGI [52]
2570 nM: TGI [48]
606 nM: TGI [4]
> 29200 nM: TGI [45]
870 nM: TGI [37]
inactive: GI50 [2] 787 nM | GI50 [3] 2120 nM | GI50 [6] 448 nM | GI50 [11] 766 nM | GI50 [12] 727 nM | GI50 [14] 775 nM | GI50 [18] 46800 nM | GI50 [21] 562 nM | GI50 [22] 669 nM | GI50 [24] 496 nM | GI50 [25] 538 nM | GI50 [30] 521 nM | GI50 [32] 442 nM | GI50 [43] 607 nM | GI50 [46] 28200 nM | GI50 [47] 503 nM | GI50 [54] 956 nM
> 100000 nM: TGI [1] | TGI [2] | TGI [6] | TGI [7] | TGI [9] | TGI [11] | TGI [12] | TGI [13] | TGI [14] | TGI [15] | TGI [16] | TGI [18] | TGI [19] | TGI [21] | TGI [22] | TGI [23] | TGI [25] | TGI [26] | TGI [27] | TGI [28] | TGI [29] | TGI [30] | TGI [31] | TGI [32] | TGI [33] | TGI [34] | TGI [35] | TGI [36] | TGI [40] | TGI [41] | TGI [43] | TGI [44] | TGI [46] | TGI [47] | TGI [53] | TGI [54] | TGI [55]
> 92200 nM: TGI [42]
24700 nM: TGI [10]
515 nM: TGI [49]
534 nM: TGI [38]
64600 nM: TGI [51]

Reference: PubChem BioAssay (NCI)
